Source: patent US8901138B2, “Sulfoximine substituted quinazolines for pharmaceutical compositions” (Boehringer Ingelheim International GmbH, priority 2012, dated 2014)

molecular target: T1, MNK2a (Homo sapiens, UniProt Q9HBH9); experiment: MNK2a in vitro kinase assay (assay 1), ADP-Glo; type: biochemical; details: preactivated GST-MNK2a, 20 μM ATP, read-out: MNK2 IC50
T1 construct: made in house
Protocol: A. MNK2a In Vitro Kinase Assay (Assay 1)
ASSAY SETUP: The inhibition of kinase activity of MNK2a was assessed using preactivated GST-MNK2a. The white, 384-well OptiPlate F plates were purchased from Perkin Elmer. The ADP-Glo Kinase Assay (including ultra pure ATP) was purchased from Promega (V9103). Activated MNK2a was obtained as described in WO2011/104340. The unlabeled eIF4E peptide (NH2-[…]—CONH2) (SEQ ID NO: 1), differing from Seq. ID No. 5 of WO 2011/104340 by the C-terminal —CONH2 group, was purchased from Thermo Fisher Scientific. All other materials were of highest grade commercially available. Compounds are tested in either serial dilutions or single dose concentrations. The compound stock solutions are 10 mM in 100% DMSO The serial compound dilutions are prepared in 100% DMSO followed by 1:27.3 intermediate dilution in assay buffer. The final DMSO concentration in assay will be <3%. In the 384-well plates 3 μl of test compound from the intermediate dilution is mixed with 4 μl of the activated MNK2 enzyme (final concentration of 10 nM) and 4 μl of the peptide (final concentration of 25 μM)/ultra pure ATP (final concentration of 20 μM), all dissolved in assay buffer. This step is followed by an incubation time of 90 min, then 10 μl of ADP Glo reagent are added, followed by 40 min of incubation. Then 20 μl of kinase detection reagent are admixed. The plates are sealed and after an incubation period of 30 min, the luminescence signal is measured in an Envision reader to determine the amount of produced ADP. All incubation steps are performed at room temperature. The assay buffer consists of 20 mM HEPES, 2 mM DTT, 0.01% BSA, 20 mM MgCl2 and 0.1% Pluronic F-127.
Each assay microtiter plate contains wells with vehicle controls instead of compound (1% DMSO in water) as reference for the high signal (100% CTL, high signal), and wells containing a potent MNK2 inhibitor (final 20 μM, 1% DMSO) as reference for low signal (0% CTL, low signal).
The luminescent signal generated is proportional to the ADP concentration produced and is correlated with activated MNK2 activity. The analysis of the data is performed by the calculation of the percentage of ATP consumption of activated MNK2 in the presence of the test compound compared to the consumption of ATP in the presence of activated MNK2 without compound. (RLU(sample)−RLU(low control))*100/(RLU(high value)−RLU(low control)) [RLU=relative luminescence units]
An inhibitor of the MNK2 enzyme will give values between 100% CTL (no inhibition) and 0% CTL (complete inhibition). Values of more than 100% CTL are normally related to compound/sample specific physico-chemical properties (e.g. solubility, light absorbance, fluorescence).
IC50 values based on dose response curves are calculated with the AssayExplorer software.

T1 sequence (Q9HBH9 whole entry): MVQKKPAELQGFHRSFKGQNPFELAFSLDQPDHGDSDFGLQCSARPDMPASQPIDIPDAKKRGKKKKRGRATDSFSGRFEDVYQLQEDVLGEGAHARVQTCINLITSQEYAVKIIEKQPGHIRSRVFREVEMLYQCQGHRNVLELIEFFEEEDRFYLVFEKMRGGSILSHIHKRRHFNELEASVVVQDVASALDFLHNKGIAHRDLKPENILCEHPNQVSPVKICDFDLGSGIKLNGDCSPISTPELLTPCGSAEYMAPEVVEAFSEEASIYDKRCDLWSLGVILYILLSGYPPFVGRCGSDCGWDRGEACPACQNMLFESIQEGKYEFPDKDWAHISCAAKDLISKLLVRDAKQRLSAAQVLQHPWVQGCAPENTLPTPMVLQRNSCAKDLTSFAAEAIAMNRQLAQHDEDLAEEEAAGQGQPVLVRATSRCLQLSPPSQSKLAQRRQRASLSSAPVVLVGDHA

| IC50 | Structure (SMILES) |
| --- | --- |
| 3 nM | Cc1cc(N=S(C)(C)=O)cc2ncnc(Nc3ccc(F)cc3OC3CCC(O)C3)c12 (racemic) [Example 4.3] |
| 2 nM | CO[C@H]1CC[C@H](Oc2cc(F)ccc2Nc2ncnc3cc(N=S4(=O)CCCC4)cc(C)c23)CC1 [Example 2.48] |
| 3 nM | Cc1cc(N=S(C)(C)=O)cc2ncnc(Nc3ccc(F)cc3OC3COCCOC3)c12 [Example 2.60] |
| 3 nM | CO[C@H]1CC[C@H](Oc2ncccc2Nc2ncnc3cc(N=S(C)(C)=O)cc(C)c23)CC1 [Example 2.68] |
| 2 nM | Cc1cc(N=S2(=O)CCCC2)cc2ncnc(Nc3cccnc3O[C@H]3CC[C@H](O)CC3)c12 [Example 2.69] |
| 2 nM | Cc1cc(N=S(C)(C)=O)cc2ncnc(Nc3ccc(F)cc3OC3CCCC3)c12 [Example 2.70] |
| 3 nM | Cc1cc(N=S(C)(C)=O)cc2ncnc(Nc3ccc(F)cc3O[C@H]3CC[C@H](O)CC3)c12 [Example 2.71] |
| 3 nM | Cc1cc(N=S(C)(C)=O)cc2ncnc(Nc3ccc(F)cc3O[C@H]3CC[C@@](C)(O)CC3)c12 [Example 2.74] |
| 3 nM | Cc1cc(N=S2(=O)CCCCC2)cc2ncnc(Nc3ccc(F)cc3O[C@H]3CCOC3)c12 [Example 2.78] |
| 1 nM | Cc1cc(N=S2(=O)CCCC2)cc2ncnc(Nc3ccc(F)cc3O[C@@H]3CO[C@H]4[C@@H]3OC[C@@H]4O)c12 [Example 2.83] |
| 3 nM | CS(C)(=O)=Nc1cc(F)c2c(Nc3ccc(F)cc3O[C@H]3CCOC3)ncnc2c1 [Example 2.89] |
| 2 nM | COc1cc(N=S2(=O)CCCC2)cc2ncnc(Nc3ccc(F)cc3O[C@H]3CC[C@H](O)CC3)c12 [Example 2.90] |
| 4 nM | Cc1cc(N=S2(=O)CCC(O)C2)cc2ncnc(Nc3ccc(F)cc3O[C@H]3CCOC3)c12 (stereo partly shown) [Example 2.93] |
| 4 nM | Cc1cc(N=S(C)(=O)c2ccncc2)cc2ncnc(Nc3ccc(F)cc3O[C@@H]3CO[C@@H]4CCO[C@@H]43)c12 (stereo partly shown) [Example 2.96] |
| 2 nM | COC1CS(=O)(=Nc2cc(C)c3c(Nc4ccc(F)cc4O[C@@H]4CO[C@@H]5CCO[C@@H]54)ncnc3c2)C1 (stereo partly shown) [Example 2.105] |
| 2 nM | Cc1cc(N=S(C)(C)=O)cc2ncnc(Nc3ccc(F)cc3O[C@H]3C[C@H](N)C3)c12 [Example 3.14] |
| 3 nM | Cc1cc(N=S2(=O)CCCC2)cc2ncnc(Nc3ccc(F)cc3OC3CCc4ccccc43)c12 (stereo not shown) [Example 4.6] |
| 2 nM | COc1cc(N=S(C)(C)=O)cc2ncnc(Nc3ccc(F)cc3O[C@H]3CCOC3)c12 [Example 5.2] |
| 2 nM | Cc1cc(N=S2(=O)CCCC2)cc2ncnc(Nc3ccc(F)cc3O[C@@H]3CCCN(S(C)(=O)=O)C3)c12 [Example 6.3] |
| 2 nM | Cc1cc(N=S2(=O)CCCC2)cc2ncnc(Nc3ccc(F)cc3O[C@@H]3CCN(CC(F)F)C3)c12 [Example 6.4] |
| 3 nM | Cc1cc(N=S(C)(C)=O)cc2ncnc(Nc3ccc(F)cc3O[C@@H]3CCN(CC(F)F)C3)c12 [Example 6.14] |
| 9 nM | CCc1cc(N=S(C)(C)=O)cc2ncnc(Nc3ccc(F)cc3O[C@H]3CCOC3)c12 [Example 7.8] |

Continued, compound first:

| Structure (SMILES) | IC50 |
| --- | --- |
| CS(C)(=O)=Nc1cc(Cl)c2c(Nc3ccc(F)cc3O[C@@H]3CO[C@H]4[C@@H]3OC[C@@H]4O)ncnc2c1 [Example 1.3] | 1 nM |
| CS(C)(=O)=Nc1cc(C(F)(F)F)c2c(Nc3ccc(F)cc3O[C@H]3CCOC3)ncnc2c1 [Example 1.5] | 3 nM |
| CS(C)(=O)=Nc1cc(Cl)c2c(Nc3ccc(F)cc3O[C@@H]3CO[C@H]4[C@@H]3OC[C@H]4O)ncnc2c1 [Example 1.6] | 1 nM |
| O=S1(=Nc2cc(Cl)c3c(Nc4ccc(F)cc4O[C@@H]4CO[C@@H]5CCO[C@@H]54)ncnc3c2)CCCC1 [Example 1.7] | 1 nM |
| O=S1(=Nc2cc(Cl)c3c(Nc4ccc(F)cc4O[C@H]4CCOC4)ncnc3c2)CCCC1 [Example 1.8] | 1 nM |
| CS(C)(=O)=Nc1cc(Br)c2c(Nc3ccc(F)cc3O[C@H]3CCOC3)ncnc2c1 [Example 1.11] | 1 nM |
| CO[C@@H]1CO[C@H]2[C@@H]1OC[C@H]2Oc1cc(F)ccc1Nc1ncnc2cc(N=S3(=O)CCCC3)cc(Cl)c12 [Example 1.13] | 1 nM |
| CS(C)(=O)=Nc1cc(Cl)c2c(Nc3ccc(F)cc3O[C@H]3CCOC3)ncnc2c1 [Example 1.14] | 1 nM |
| CS(C)(=O)=Nc1cc(Cl)c2c(Nc3cccnc3O[C@H]3CC[C@H](O)CC3)ncnc2c1 [Example 1.16] | 1 nM |
| Cc1cc(N=S(C)(C)=O)cc2ncnc(Nc3ccc(F)cc3O[C@@H]3CC[C@H]3O)c12 [Example 1.34] | 3 nM |
| Cc1cc(N=S(C)(C)=O)cc2ncnc(Nc3ccc(F)cc3O[C@@H]3CCCC[C@@H]3O)c12 [Example 1.39] | 7 nM |
| Cc1cc(N=S(C)(C)=O)cc2ncnc(Nc3ccc(F)cc3O[C@@H]3CCOC3)c12 [Example 2.5] | 3 nM |
| COc1cc(N=S2(=O)CCCC2)cc2ncnc(Nc3ccc(F)cc3O[C@@H]3CO[C@H]4[C@@H]3OC[C@H]4OC)c12 [Example 2.9] | 1 nM |
| COc1cc(N=S2(=O)CCCC2)cc2ncnc(Nc3cccnc3O[C@H]3CC[C@H](O)CC3)c12 [Example 2.18] | 1 nM |
| CCS(C)(=O)=Nc1cc(C)c2c(Nc3ccc(F)cc3O[C@H]3CC[C@H](O)CC3)ncnc2c1 (stereo partly shown) [Example 2.22] | 3 nM |
| Cc1cc(N=S2(=O)CCCC2)cc2ncnc(Nc3ccc(F)cc3OC3COCCOC3)c12 [Example 2.25] | 2 nM |
| CS(C)(=O)=Nc1cc(F)c2c(Nc3ccc(F)cc3OC3CCCC3)ncnc2c1 [Example 2.29] | 3 nM |
| Cc1cc(N=S2(=O)CCCC2)cc2ncnc(Nc3ccc(F)cc3O[C@@H]3CO[C@H]4[C@@H]3OC[C@H]4O)c12 [Example 2.36] | 2 nM |
| Cc1cc(N=S(C)(C)=O)cc2ncnc(Nc3ccc(F)cc3O[C@@H]3CO[C@@H]4CCO[C@@H]43)c12 [Example 2.39] | 2 nM |
| Cc1cc(N=S2(=O)CCCC2)cc2ncnc(Nc3ccc(F)cc3O[C@@H]3CO[C@@H]4CCO[C@@H]43)c12 [Example 2.42] | 1 nM |
| CO[C@@H]1CO[C@H]2[C@@H]1OC[C@H]2Oc1cc(F)ccc1Nc1ncnc2cc(N=S3(=O)CCCC3)cc(C)c12 [Example 2.43] | 1 nM |
